Data published in patent publication EP0438519B1, “THERAPEUTIC PEPTIDES” (The Administrators of The Tulane Educational Fund, priority 1988, dated 1998).

System: bombesin-stimulated amylase secretion
Assay: Bombesin-stimulated pancreatic amylase secretion in the rat
Type: in vivo

## D-Phe^6BN(6-13)methylester [I00008]
5 nM of the analog, stimulated by 0.5 nM of bombesin, after bolus injection
  duration of inhibition of the secretion of amylase: 150 min
Result in words (Fig. 3)
  effect on bombesin-stimulated amylase secretion: potent antagonist
